In patent US10821115B2, “Compounds that inhibit Mcl-1 protein” (priority 2017, dated 2020):
Read-outs that look alike come from different tables or passages of the source.

What was measured:
[1] = system: human multiple myeloma cell line, OPM-2; test: Cell viability assay (OPM-2 10 FBS), CellTiter-Glo; format: cell-based
Method in brief: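 Cells were seeded at 3000 cells/well in RPMI 1640 with 10% FBS and exposed to serially diluted compounds for 16 h at 37 °C, 5% CO2.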

[2] = molecular target: recombinant human Mcl-1 (residues 171-327) / Bim interaction (Homo sapiens (Human), UniProt Q07820); test: biochemical; format: binding; settings: read-out: Mcl-1 HTRF IC50
[3] = read-out: OPM-2 10% FBS IC50 IP, OPM-2 cells, 10% FBS, 16 h, CellTiter-Glo
[4] = TR-FRET, Mcl-1(171-327) / biotin-Bim (51-76)
[5] = Homo sapiens, OPM-2, 16 h, read-out: OPM-2 10% FBS IC50 IP, OPM-2 cells, 10% FBS, 16 h, CellTiter-Glo

Chain of recombinant human Mcl-1 (residues 171-327) / Bim interaction (Q07820 171-327): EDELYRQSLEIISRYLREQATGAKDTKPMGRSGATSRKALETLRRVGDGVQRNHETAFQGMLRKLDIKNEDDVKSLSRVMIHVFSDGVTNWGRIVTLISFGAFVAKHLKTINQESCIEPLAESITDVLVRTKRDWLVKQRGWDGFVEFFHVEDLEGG

SMILES | IC50 [1, 3] [nM] | IC50 [2, 4] [nM] | IC50 [1, 5] [nM] | IC50 [2] [nM]
C[C@@H]1[C@@H](C)CCC[C@@](O)([C@@H]2CCN(C)C2=O)[C@@H]2CC[C@H]2CN2C[C@@]3(CCCc4cc(Cl)ccc43)COc3ccc(cc32)C(=O)NS1(=O)=O [Example 100203, (1S,3′R,6′R,7′S,11′S,12′R)-6-chloro-7′-hydroxy-11′,12′-dimethyl-7′-((3S)-1-methyl-2-oxo-3-pyrrolidinyl)-3,4-dihydro-2H,15′H-spiro[naphthalene-1,22′-[20]oxa[13]thia[1,14]diazatetracyclo [14.7.2.0~3,6~.0~19,24~]pentacosa[16,18,24]trien]-15′-one 13′,13′-dioxide] | 491 | 0.285 |  | 
C[C@@H]1[C@@H](C)CCC[C@@](O)([C@@H]2CCN(C)C2=O)[C@@H]2CC[C@H]2CN2C[C@@]3(CCCc4cc(Cl)ccc43)COc3ccc(cc32)C(=O)NS1(=O)=O [Example 100204, (1S,3′R,6′R,7′S,11′S,12′R)-6-chloro-7′-hydroxy-11′,12′-dimethyl-7′-((3S)-1-methyl-2-oxo-3-pyrrolidinyl)-3,4-dihydro-2H,15′H-spiro[naphthalene-1,22′-[20]oxa[13]thia[1,14]diazatetracyclo [14.7.2.0~3,6~.0~19,24~]pentacosa[16,18,24]trien]-15′-one 13′,13′-dioxide] | 5270 | 1.66 |  | 
C[C@@H]1[C@@H](C)CCC[C@@](O)([C@@H]2OCCN(C)C2=O)[C@@H]2CC[C@H]2CN2C[C@@]3(CCCc4cc(Cl)ccc43)COc3ccc(cc32)C(=O)NS1(=O)=O [Example 100205, (1S,3′R,6′R,7′S,11′S,12′R)-6-chloro-7′-hydroxy-11′,12′-dimethyl-7′-((2S)-4-methyl-3-oxo-2-morpholinyl)-3,4-dihydro-2H,15′H-spiro[naphthalene-1,22′-[20]oxa[13]thia[1,14]diazatetracyclo [14.7.2.0~3,6~.0~19,24~]pentacosa[16,18,24]trien]-15′-one 13′,13′-dioxide] |  | 0.206 | 68 | 
CC[C@@]1(O)/C=C/C[C@H](C)[C@@H](C)S(=O)(=O)NC(=O)c2ccc3c(c2)N(C[C@@H]2CC[C@H]21)C[C@@]1(CCCc2cc(Cl)ccc21)CO3 [Example 100206, (1S,3′R,6′R,7′R,8′E,11′S,12′R)-6-chloro-7′-ethyl-7′-hydroxy-11′,12′-dimethyl-3,4-dihydro-2H,15′H-spiro[naphthalene-1,22′-[20]oxa[13]thia[1,14]diazatetracyclo [14.7.2.0~3,6~.0~19,24~]pentacosa[8,16,18,24]tetraen]-15′-one 13′,13′-dioxide] |  | 1.26 | 1750 | 
CC[C@]1(O)/C=C/C[C@H](C)[C@@H](C)S(=O)(=O)NC(=O)c2ccc3c(c2)N(C[C@@H]2CC[C@H]21)C[C@@]1(CCCc2cc(Cl)ccc21)CO3 [Example 100207, (1S,3′R,6′R,7′S,8′E,11′S,12′R)-6-chloro-7′-ethyl-7′-hydroxy-11′,12′-dimethyl-3,4-dihydro-2H,15′H-spiro[naphthalene-1,22′-[20]oxa[13]thia[1,14]diazatetracyclo [14.7.2.0~3,6~.0~19,24~]pentacosa[8,16,18,24]tetraen]-15′-one 13′,13′-dioxide] |  | 0.141 | 215 | 
CC(C)[C@]1(O)/C=C/C[C@H](C)[C@@H](C)S(=O)(=O)NC(=O)c2ccc3c(c2)N(C[C@@H]2CC[C@H]21)C[C@@]1(CCCc2cc(Cl)ccc21)CO3 [Example 100208, (1S,3′R,6′R,7′S,8′E,11′S,12′R)-6-chloro-7′-hydroxy-11′,12′-dimethyl-7′-(2-propanyl)-3,4-dihydro-2H,15′H-spiro[naphthalene-1,22′-[20]oxa[13]thia[1,14]diazatetracyclo [14.7.2.0~3,6~.0~19,24~]pentacosa[8,16,18,24]tetraen]-15′-one 13′,13′-dioxide] |  | 0.431 | 318 | 
CCC[C@@]1(O)/C=C/C[C@H](C)[C@@H](C)S(=O)(=O)NC(=O)c2ccc3c(c2)N(C[C@@H]2CC[C@H]21)C[C@@]1(CCCc2cc(Cl)ccc21)CO3 [Example 100209, (1S,3′R,6′R,7′R,8′E,11′S,12′R)-6-chloro-7′-hydroxy-11′,12′-dimethyl-7′-propyl-3,4-dihydro-2H,15′H-spiro[naphthalene-1,22′-[20]oxa[13]thia[1,14]diazatetracyclo [14.7.2.0~3,6~.0~19,24~]pentacosa[8,16,18,24]tetraen]-15′-one 13′,13′-dioxide] |  |  | 3380 | 2.67
CC(C)[C@@]1(O)/C=C/C[C@H](C)[C@@H](C)S(=O)(=O)NC(=O)c2ccc3c(c2)N(C[C@@H]2CC[C@H]21)C[C@@]1(CCCc2cc(Cl)ccc21)CO3 [Example 100210, (1S,3′R,6′R,7′R,8′E,11′S,12′R)-6-chloro-7′-hydroxy-11′,12′-dimethyl-7′-(2-propanyl)-3,4-dihydro-2H,15′H-spiro[naphthalene-1,22′-[20]oxa[13]thia[1,14]diazatetracyclo [14.7.2.0~3,6~.0~19,24~]pentacosa[8,16,18,24]tetraen]-15′-one 13′,13′-dioxide] |  | 3.47 | 3360 | 
C[C@@H]1[C@@H](C)C/C=C/[C@](O)(C2CC2)[C@@H]2CC[C@H]2CN2C[C@@]3(CCCc4cc(Cl)ccc43)COc3ccc(cc32)C(=O)NS1(=O)=O [Example 100213, (1S,3′R,6′R,7′R,8′E,11′S,12′R)-6-chloro-7′-cyclopropyl-7′-hydroxy-11′,12′-dimethyl-3,4-dihydro-2H,15′H-spiro[naphthalene-1,22′-[20]oxa[13]thia[1,14]diazatetracyclo [14.7.2.0~3,6~.0~19,24~]pentacosa[8,16,18,24]tetraen]-15′-one 13′,13′-dioxide] |  | 2.84 | 2020 | 
C[C@@H]1[C@@H](C)C/C=C/[C@@](O)(C2CC2)[C@@H]2CC[C@H]2CN2C[C@@]3(CCCc4cc(Cl)ccc43)COc3ccc(cc32)C(=O)NS1(=O)=O [Example 100214, (1S,3′R,6′R,7′S,8′E,11′S,12′R)-6-chloro-7′-cyclopropyl-7′-hydroxy-11′,12′-dimethyl-3,4-dihydro-2H,15′H-spiro[naphthalene-1,22′-[20]oxa[13]thia[1,14]diazatetracyclo [14.7.2.0~3,6~.0~19,24~]pentacosa[8,16,18,24]tetraen]-15′-one 13′,13′-dioxide] |  | 0.143 | 95 | 
CO[C@]1(C)/C=C/C[C@H](C)[C@@H](C)S(=O)(=O)NC(=O)c2ccc3c(c2)N(C[C@@H]2CC[C@H]21)C[C@@]1(CCCc2cc(Cl)ccc21)CO3 [Example 100215, (1S,3′R,6′R,7′R,8′E,11′S,12′R)-6-chloro-7′-methoxy-7′,11′,12′-trimethyl-3,4-dihydro-2H,15′H-spiro[naphthalene-1,22′-[20]oxa[13]thia[1,14]diazatetracyclo [14.7.2.0~3,6~.0~19,24~]pentacosa[8,16,18,24]tetraen]-15′-one 13′,13′-dioxide] |  |  | 1250 | 0.595
C[C@@H]1[C@@H](C)CCC[C@]2(CC(N3CCN(C)CC3)=NO2)[C@@H]2CC[C@H]2CN2C[C@@]3(CCCc4cc(Cl)ccc43)COc3ccc(cc32)C(=O)NS1(=O)=O [Example 100216, (1S,3′R,6′R,7′S,11′S,12′R)-6-chloro-11′,12′-dimethyl-3″-(4-methyl-1-piperazinyl)-3,4-dihydro-2H,4″H,15′H-dispiro[naphthalene-1,22′-[20]oxa[13]thia[1,14]diazatetracyclo [14.7.2.0~3,6~.0~19,24~]pentacosa[16,18,24]triene-7′,5″-[1,2]oxazol]-15′-one 13′,13′-dioxide] |  | 0.311 | 374 | 
CO[C@]1(CCO)/C=C/C[C@H](C)[C@@H](C)S(=O)(=O)NC(=O)c2ccc3c(c2)N(C[C@@H]2CC[C@H]21)C[C@@]1(CCCc2cc(Cl)ccc21)CO3 [Example 100217, (1S,3′R,6′R,7′R,8′E,11′S,12′R)-6-chloro-7′-(2-hydroxyethyl)-7′-methoxy-11′,12′-dimethyl-3,4-dihydro-2H,15′H-spiro[naphthalene-1,22′-[20]oxa[13]thia[1,14]diazatetracyclo [14.7.2.0~3,6~.0~19,24~]pentacosa[8,16,18,24]tetraen]-15′-one 13′,13′-dioxide] |  | 0.183 | 130 | 
CO[C@@]1(CCO)/C=C/C[C@H](C)[C@@H](C)S(=O)(=O)NC(=O)c2ccc3c(c2)N(C[C@@H]2CC[C@H]21)C[C@@]1(CCCc2cc(Cl)ccc21)CO3 [Example 100218, (1S,3′R,6′R,7′S,8′E,11′S,12′R)-6-chloro-7′-(2-hydroxyethyl)-7′-methoxy-11′,12′-dimethyl-3,4-dihydro-2H,15′H-spiro[naphthalene-1,22′-[20]oxa[13]thia[1,14]diazatetracyclo [14.7.2.0~3,6~.0~19,24~]pentacosa[8,16,18,24]tetraen]-15′-one 13′,13′-dioxide] |  | 0.621 | 675 | 
CO[C@@]1(CCO)/C=C/C[C@H](C)[C@@H](C)S(=O)(=O)N(C)C(=O)c2ccc3c(c2)N(C[C@@H]2CC[C@H]21)C[C@@]1(CCCc2cc(Cl)ccc21)CO3 [Example 100219, (1S,3′R,6′R,7′S,8′E,11′S,12′R)-6-chloro-7′-(2-hydroxyethyl)-7′-methoxy-11′,12′,14′-trimethyl-3,4-dihydro-2H,15′H-spiro[naphthalene-1,22′-[20]oxa[13]thia[1,14]diazatetracyclo [14.7.2.0~3,6~.0~19,24~]pentacosa[8,16,18,24]tetraen]-15′-one 13′,13′-dioxide] |  | 0.401 | 974 | 
